Consider 24 compounds from ChEMBL document CHEMBL1201862, “PubChem BioAssay data set” (2004).

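These data come from cells grown in 96-well plates and exposed to compound for 48 hours at five concentrations. GI50 = concentration required for 50% inhibition of growth.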 Calls of active or inactive are those of the source. No stated cut-off is given here; in the data, active = GI50 up to about 1.1 µM and inactive = higher.

Test systems include LXFL 529; HOP-18; DMS-114; KM-20L2; DMS-273; SNB-78; M19-MEL; XF498; RXF 631.
Experiment in all cases: growth of human tumour cells (NCI), 48 h

Consider `O=C(OCc1ccccc1C1CSCSC1)c1cc(C(=O)OCc2ccccc2C2CSCSC2)c(C(=O)OCc2ccccc2C2CSCSC2)cc1C(=O)OCc1ccccc1C1CSCSC1`, for which the GI50 with LXFL 529 is > 100 µM (inactive); in the test with HOP-18 it was > 100 µM (inactive); in the test with DMS-114, > 100 µM (inactive); with KM-20L2, > 100 µM (inactive); with DMS-273, > 100 µM (inactive); with SNB-78, 78.9 µM (inactive). Moreover, the GI50 in the test on M19-MEL is > 100 µM (inactive).

Turning to `Cc1nc(N2N=C(c3ccc(Cl)cc3)CCC2=O)sc1[N+](=O)[O-]`, the GI50 with LXFL 529, in the test with HOP-18, with DMS-114, with KM-20L2, with DMS-273 and with SNB-78 was > 100 µM (inactive) each time. Further, the GI50 with M19-MEL and in the test on XF498 was > 100 µM (inactive) each time.

With `NCCCNCc1c2ccccc2c(CNCCCN)c2ccccc12`, the GI50 with LXFL 529 is 11.4 µM (inactive); with HOP-18, 25.1 µM (inactive); in the test with DMS-114 it was 14.3 µM (inactive); in the test with KM-20L2, 17.9 µM (inactive); with SNB-78 it was 22.5 µM (inactive); with M19-MEL it was 14.7 µM (inactive).

Regarding `OCC(O)C(O)C(O)C(O)c1nnn[nH]1` (centres undefined), the GI50 in the test with LXFL 529, in the test on DMS-114, in the test with DMS-273, in the test on SNB-78, with M19-MEL and in the test on XF498 was > 100 µM (inactive) each time.

For the compound `C[C@]12C=CC(=O)C=C1[C@@H](F)C[C@H]1[C@@H]3CC[C@](O)(C(=O)CO)[C@@]3(C)C[C@H](O)[C@@]12F`, the GI50 in the test on LXFL 529 was > 100 µM (inactive); in the test on DMS-114, > 100 µM (inactive); in the test on KM-20L2, > 100 µM (inactive); in the test on DMS-273 it was > 100 µM (inactive); in the test on SNB-78, > 84.1 µM (inactive); with M19-MEL it was > 100 µM (inactive). For the same compound, in the test with XF498, the GI50 is 97.7 µM (inactive).

`Cc1ccc(NC(=O)c2cc3cc(/N=N/c4ccccc4C(=O)O)ccc3oc2=O)cc1`: the GI50 in the test with HOP-18 was 32 µM (inactive); with DMS-114, 24 µM (inactive); with KM-20L2, 36 µM (inactive); in the test on DMS-273 it was 37.4 µM (inactive); in the test with XF498, 33 µM (inactive).

Turning to `O=C(CSc1nnc(-c2ccc(/N=C\c3ccc(Cl)cc3)cc2)o1)Nc1ccc(Cl)cc1Cl`, the GI50 was 22.4 µM (inactive) in the test with LXFL 529; 11.6 µM (inactive) in the test with HOP-18; 37.2 µM (inactive) with KM-20L2; 34.3 µM (inactive) in the test with DMS-273; > 100 µM (inactive) in the test with SNB-78; 31.7 µM (inactive) in the test on M19-MEL. For the same compound, the GI50 with XF498 was 17.7 µM (inactive).

For `COc1cc2c(cc1OC)C(Cc1cc(Br)c(OC)c(OC)c1)=[N+](C)CC2`, the GI50 with LXFL 529 is 9.73 µM (inactive); in the test with HOP-18, > 100 µM (inactive); with DMS-114 it was 2.52 µM (inactive); with KM-20L2 it was 39.2 µM (inactive); in the test with SNB-78 it was 92.5 µM (inactive); in the test on M19-MEL, 56.1 µM (inactive).

As for `N#Cc1ccccc1/C=N/O`, the GI50 is > 91.4 µM (inactive) with LXFL 529; > 100 µM (inactive) in the test with HOP-18; > 59.4 µM (inactive) in the test on DMS-114; > 100 µM (inactive) in the test with KM-20L2; > 41.4 µM (inactive) in the test on DMS-273; > 100 µM (inactive) in the test on SNB-78. The GI50 in the test on M19-MEL and in the test on XF498 was > 100 µM (inactive) in each case.

On to `C/C(=N\Nc1ccccc1)c1sc(-c2nc(C)c(/C(C)=N/Nc3ccccc3)s2)nc1C`, for which the GI50 is 7.06 µM (inactive) in the test with LXFL 529; > 45 µM (inactive) with HOP-18; 11.5 µM (inactive) in the test with DMS-114; 6.46 µM (inactive) with KM-20L2; 8.93 µM (inactive) with DMS-273; > 64.7 µM (inactive) in the test on SNB-78. The GI50 is 17.2 µM (inactive) in the test on M19-MEL and 45.6 µM (inactive) in the test on XF498.

Regarding `CC(O)C(C(=O)O)N(CC1(O)OCC(O)C(O)C1O)N=O` (centres undefined), the GI50 in the test on LXFL 529, with DMS-114, in the test on KM-20L2, with RXF 631, in the test with DMS-273 and in the test with SNB-78 was > 100 µM (inactive) each time. Also, the GI50 with M19-MEL and in the test on XF498 was > 100 µM (inactive) in each case.

On to `CCCCCCCCCCCCCCCC(=O)OCC1OC(n2cc(F)c(=O)[nH]c2=O)C(N)C(O)C1O` (centres undefined), for which the GI50 is 18.9 µM (inactive) with LXFL 529; 16.3 µM (inactive) in the test on HOP-18; 18.8 µM (inactive) in the test with DMS-114; 17.2 µM (inactive) in the test on KM-20L2; 18.7 µM (inactive) in the test with M19-MEL; 18.9 µM (inactive) with XF498.

On to `COc1cc(-c2nccc3cc(OC)c(OC)cc23)ccc1O`, for which the GI50 in the test on LXFL 529 was 29.7 µM (inactive); with HOP-18, 21.1 µM (inactive); with KM-20L2, 33.7 µM (inactive); with RXF 631 it was 62.4 µM (inactive); in the test on DMS-273, 43.5 µM (inactive); in the test with SNB-78, > 100 µM (inactive). For the same compound, the GI50 with M19-MEL was > 100 µM (inactive); with XF498, 25.4 µM (inactive).

On to `Brc1ccccc1C1SCc2nc3ccccc3n21` (centres undefined), for which the GI50 with LXFL 529 was 15.1 µM (inactive); in the test on HOP-18 it was < 0.01 µM (active); in the test with DMS-114, 16 µM (inactive); in the test with SNB-78, 26.4 µM (inactive); in the test with M19-MEL, 15 µM (inactive).

Take `C#CCNC(=O)N(CC#C)N=O`: the GI50 in the test on LXFL 529, in the test with HOP-18, in the test on DMS-114, in the test with KM-20L2, with DMS-273 and with SNB-78 was > 100 µM (inactive) throughout. Moreover, the GI50 in the test with M19-MEL and in the test on XF498 was > 100 µM (inactive) in each case.

For the compound `COc1cc(Br)c(/C=N\c2cccc3ccc(OS(=O)(=O)c4ccc([N+](=O)[O-])cc4)cc23)cc1OC`, the GI50 in the test on LXFL 529 was 12.2 µM (inactive); with DMS-114 it was > 100 µM (inactive); in the test with SNB-78 it was 34.2 µM (inactive); in the test on M19-MEL, > 100 µM (inactive).

With `O=C(NNC(=O)/C(=C/c1cccc([N+](=O)[O-])c1)NC(=O)c1ccccc1)Nc1ccc(Cl)cc1`, the GI50 in the test on LXFL 529 was 10.6 µM (inactive); in the test with HOP-18, 15.6 µM (inactive); with DMS-114, 11.5 µM (inactive); in the test with KM-20L2, 17.1 µM (inactive); in the test with RXF 631, 10.2 µM (inactive); in the test on DMS-273, 12.9 µM (inactive). The GI50 is 24 µM (inactive) in the test on SNB-78, 15.2 µM (inactive) in the test on M19-MEL and 9.53 µM (inactive) in the test on XF498.

On to `COCCCNC(=O)C1C(=O)N(CCCOC)C(=O)/C1=N\N` (centres undefined), for which the GI50 in the test with LXFL 529, in the test on HOP-18, in the test on DMS-114, with KM-20L2, in the test with RXF 631 and in the test on DMS-273 was > 100 µM (inactive) in each case. The GI50 with SNB-78 and in the test with M19-MEL was > 100 µM (inactive) in each case.

For `COC(=O)c1c/c(=N\NC(=O)CC(=O)Nc2ccccc2Cl)c2ccccc2o1`, the GI50 in the test on LXFL 529, in the test with DMS-114, in the test on KM-20L2, in the test on RXF 631, with DMS-273 and with SNB-78 was > 100 µM (inactive) each time. For the same compound, the GI50 in the test on XF498 was > 100 µM (inactive).

For the compound `COC(=O)C1=C(C[S+]([O-])c2ccc([N+](=O)[O-])cc2[N+](=O)[O-])ON(C)C1c1ccccc1` (centres undefined), the GI50 in the test on LXFL 529 is 30.1 µM (inactive); in the test with HOP-18, 22.6 µM (inactive); in the test with DMS-114, 27.7 µM (inactive); with KM-20L2, 27.8 µM (inactive); in the test on RXF 631, 99.5 µM (inactive); in the test on DMS-273, 36.2 µM (inactive). Besides, the GI50 is 33.9 µM (inactive) with SNB-78, 34.3 µM (inactive) in the test on M19-MEL and 37.3 µM (inactive) in the test with XF498.

As for `[O-][Cl+3]([O-])([O-])[O-].c1ccc(C[P+]2(c3ccccc3)CCCCC2)cc1`, the GI50 with LXFL 529 is 38.3 µM (inactive); with HOP-18, > 100 µM (inactive); in the test with DMS-114, 48.5 µM (inactive); in the test with KM-20L2, > 100 µM (inactive); with DMS-273, 79.3 µM (inactive); in the test with SNB-78, > 100 µM (inactive). Further, the GI50 in the test with M19-MEL was 28.8 µM (inactive); in the test on XF498, 33.6 µM (inactive).

With `O=C(Nc1cccc(C(F)(F)F)c1)C(=O)C1NC(=S)NC1=O` (centres undefined), the GI50 in the test with LXFL 529, with HOP-18, in the test with DMS-114, in the test on KM-20L2, in the test on DMS-273 and in the test with SNB-78 was > 100 µM (inactive) in each case. In the test with M19-MEL, the GI50 is > 100 µM (inactive).

With `CCN1C[C@]2(C)CC[C@H](O)C34C1C(C[C@@H]32)[C@@]1(O)CC[C@H]2C[C@@H]4[C@@H]1[C@H]2O`, the GI50 in the test on LXFL 529 is > 100 µM (inactive); in the test with HOP-18, > 100 µM (inactive); in the test with DMS-114 it was > 100 µM (inactive); with KM-20L2, > 100 µM (inactive); with DMS-273, > 100 µM (inactive); with SNB-78, 88.7 µM (inactive). For the same compound, in the test on M19-MEL, the GI50 was > 100 µM (inactive).

For `Cc1ccc(S(=O)(=O)NC(=O)NCCc2ccccc2)cc1`, the GI50 with LXFL 529 is > 100 µM (inactive); with HOP-18, > 100 µM (inactive); in the test with DMS-114, 62.1 µM (inactive); in the test on KM-20L2, > 100 µM (inactive); in the test on SNB-78 it was > 100 µM (inactive); in the test with M19-MEL, > 100 µM (inactive). Besides, the GI50 with XF498 was > 100 µM (inactive).
